According to PubChem BioAssay AID1963858 (Molecular Pharmacology Branch, DTP, NCI, 2024):
Where “and” joins values, the source holds several entries; their conditions need not be identical. Equal entries are not always repeated.

Tested on: HOP-62 multicell spheroids with HUVEC/MSC, viability
Test: Anticancer human tumor HOP-62 cell line growth inhibition [KRAS2];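 also: viability read after a week of compound exposure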;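 as to viability, T/C: 100% = DMSO vehicle-treated spheroids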
Conditions: for viability, T/C: stronger effect = lower value
Text: Multicellular complex tumor spheroid response to RAS pathway inhibitors in combination with a targeted agents in patient-derived cell lines with oncogenic KRAS variants from multiple cancer types
A high-throughput screen of multi-cell type tumor spheroids was designed to identify active combinations of targeted small molecules and KRAS pathway inhibitors. Complex spheroids include a stromal component modeled by human endothelial cells (HUVEC) and fibroblasts modeled by human mesenchymal stem cells (MSCs). The concentration ranges selected for each drug and investigational agent were based upon clinically achievable concentrations if the clinical Cmax of the agent was known.
Compounds. The drugs and investigational agents: BI-3406 (NSC825286), BAY-293 (NSC824723), batoprotafib (TNO155; NSC825523), sotorasib (AMG 510; NSC818433), MRTX1257 (NSC819558), elimusertib (BAY 1895344; NSC800525), molibresib (GSK525762; NSC774829), temuterkib (LY3214996; NSC803410), venetoclax (NSC766270), alisertib (NSC759677), olaparib (NSC753686), talazoparib (NSC767125), erdafitinib (NSC781556), ipatasertib (NSC767898), cabozantinib (NSC761068), nintedanib (NSC756659), abemaciclib (NSC768073), docetaxel (NSC628503), trametinib (NSC758246), and sapanisertib (NSC764658) were obtained from the National Cancer Institute (NCI) Developmental Therapeutics Program Chemical Repository. The FDA-approved anticancer drug set is available from the Developmental Therapeutics Program. […] The stock solutions were prepared in dimethyl sulfoxide (DMSO, Sigma-Aldrich, St. Louis, MO, cat. D2650) at 800-fold the tested concentration and stored at -70 degrees C prior to their use. All drugs and investigational agents were tested over a range starting from a high concentration at or near the clinical Cmax and decreasing in half-log increments. If the clinical Cmax for an agent had not been determined, the highest concentration tested was 10 microM.
Cell Culture. All cells were maintained in an incubator at 37 degrees C and 5% CO2 with 95% humidity. The PDC lines were cultured according to standard operating procedures established by the NCI PDMR (https://pdmr.cancer.gov/sops/default.htm). Briefly, all PDCs were thawed and cultured in Matrigel-coated flasks prepared with a working solution of 1X Ham's F-12 nutrient mix, without supplementation (Invitrogen, Waltham, MA, cat. 11765054), 100 U/mL penicillin-streptomycin (Invitrogen, cat. 15140122), and 2.5% Matrigel (Corning Inc., Corning, NY, cat. 354248) for the first three passages. All PDCs were cultured in complete DMEM/F-12 media containing advanced DMEM/F-12 (Invitrogen, cat. 12634028), 4.9% defined fetal bovine serum, heat inactivated (HyClone Laboratories Inc., Logan, UT, cat. SH30070.03HI), 389 ng/mL hydrocortisone (Sigma-Aldrich, cat. H4001), 9.7 ng/mL human EGF recombinant protein (Invitrogen, cat. PHG0313), 23.4 microg/mL adenine (Sigma-Aldrich, cat. A2786), 97.3 U/mL penicillin-streptomycin (Invitrogen, cat. 15140122), 1.9 mM L-glutamine (Invitrogen, cat. 25030081), and 9.7 microM Y-27632 dihydrochloride (Tocris Bioscience, Bristol, United Kingdom, cat. 1254). The PDCs were cultured in complete DMEM/F12 media without 9.7 microM Y-27632 dihydrochloride for at least two passages prior to the screen. The established cell line HOP-62 was cultured in RPMI 1640 medium, HEPES (Invitrogen, cat. 22400105) with 10% defined fetal bovine serum (HyClone Laboratories Inc., cat. SH30070.03) and 2 mM L-glutamine (Invitrogen, cat. 25030081). The pooled donor HUVEC were cultured in endothelial cell growth medium 2 (PromoCell, Heidelberg, Germany, cat. C-22011) and the hMSC were cultured in mesenchymal stem cell growth medium 2 (PromoCell, cat. C-28009). For all experiments, HUVEC and hMSC were used at passages </=5, while the malignant cell lines were used at passages </=15. […]

[1] = compound alone, run of 07/19/2021
[2] = compound alone, run of 07/26/2021
[3] = compound alone, run of 07/12/2021

Compound	viability, T/C (compound 3.16 µM)	viability, T/C (compound 1 µM)	viability, T/C (compound 0.01 µM)	viability, T/C (compound 0.0316 µM)	IC50 (curve of compound)	viability, T/C (compound 0.1 µM)	viability, T/C (compound 0.316 µM)	viability, T/C (compound 10 µM)	other results
C=CC(=O)N1CCN(c2nc(=O)n(-c3c(C)ccnc3C(C)C)c3nc(-c4c(O)cccc4F)c(F)cc23)C(C)C1 (stereo not drawn)	65.2% [middle of 17 runs]	–	–	–	–	–	–	–	IC50 [1]: > 10 µM and 4.34 µM; IC50 [2]: 8.23 µM [middle of 5 runs]
C=CC(=O)N1CCN(c2nc(OCC3CCCN3C)nc3c2CCN(c2cccc4cccc(C)c24)C3)CC1CC#N (stereo not drawn)	–	35.5% [middle of 17 runs]	–	–	–	–	–	–	IC50 [2]: 622 nM [middle of 6 runs]
CC(=O)Nc1cccc(-n2c(=O)n(C3CC3)c(=O)c3c(Nc4ccc(I)cc4F)n(C)c(=O)c(C)c32)c1	–	–	31% [middle of 5 runs]	31.2% [middle of 5 runs]	4.9 nM [middle of 5 runs]	–	–	–	viability, T/C (compound 0.0001 µM): 107% [middle of 5 runs]; viability, T/C (compound 0.000316 µM): 107% [middle of 5 runs]; viability, T/C (compound 0.001 µM): 87.9% [middle of 5 runs]; viability, T/C (compound 0.00316 µM): 61.7% [middle of 5 runs]
CC(=O)OC12COC1CC(O)C1(C)C(=O)C(O)C3=C(C)C(OC(=O)C(O)C(NC(=O)OC(C)(C)C)c4ccccc4)CC(O)(C(OC(=O)c4ccccc4)C21)C3(C)C (stereo not drawn)	42.9% [middle of 5 runs]	42% [middle of 5 runs]	41% [middle of 5 runs]	36.9% [middle of 5 runs]	< 0.01 µM	36.1% [middle of 5 runs]	39.6% [middle of 5 runs]	–	–
CC(C)NCC(C(=O)N1CCN(c2ncnc3c2C(C)CC3O)CC1)c1ccc(Cl)cc1 (stereo not drawn)	27.9% [middle of 5 runs]	62.8% [middle of 5 runs]	–	101% [middle of 5 runs]	1.49 µM [middle of 5 runs]	104% [middle of 5 runs]	80.4% [middle of 5 runs]	13.2% [middle of 5 runs]	–
CC(C)n1nc(-c2ccc3oc(N)nc3c2)c2c(N)ncnc21	–	–	44% [middle of 5 runs]	25.6% [middle of 5 runs]	–	18.1% [middle of 5 runs]	–	–	viability, T/C (compound 0.000316 µM): 93.7% [middle of 5 runs]; viability, T/C (compound 0.001 µM): 80.3% [middle of 5 runs]
CC1(C)CCC(CN2CCN(c3ccc(C(=O)NS(=O)(=O)c4ccc(NCC5CCOCC5)c([N+](=O)[O-])c4)c(Oc4cnc5[nH]ccc5c4)c3)CC2)=C(c2ccc(Cl)cc2)C1	73.1% [middle of 5 runs]	89.2% [middle of 5 runs]	–	97.8% [middle of 5 runs]	5.7 µM [middle of 5 runs]	98.4% [middle of 5 runs]	93.6% [middle of 5 runs]	26.2% [middle of 5 runs]	–
CC1COCCN1c1cc(-c2ccnn2C)c2ccnc(-c3ccn[nH]3)c2n1 (stereo not drawn)	17.2% [middle of 5 runs]	16.8% [middle of 5 runs]	–	–	–	–	16.9% [middle of 5 runs]	–	–
CC1OCC2(CCN(c3cnc(Sc4ccnc(N)c4Cl)c(N)n3)CC2)C1N (stereo not drawn)	–	–	–	103% (2×) and 77%	> 10 µM and 3.82 µM and 9.82 µM	92.2% [middle of 19 runs]	–	–	IC50 [3]: 2.29 µM [middle of 6 runs]
CCN1CCN(Cc2ccc(Nc3ncc(F)c(-c4cc(F)c5nc(C)n(C(C)C)c5c4)n3)nc2)CC1	–	68% [middle of 5 runs]	102% [middle of 5 runs]	99.7% [middle of 5 runs]	> 1 µM	98.1% [middle of 5 runs]	86.3% [middle of 5 runs]	–	viability, T/C (compound 0.00316 µM): 102% [middle of 5 runs]
CCNC(=O)CC1N=C(c2ccc(Cl)cc2)c2cc(OC)ccc2-n2c(C)nnc21 (stereo not drawn)	44.7% [middle of 5 runs]	48.2% [middle of 5 runs]	–	105% [middle of 5 runs]	880 nM [middle of 5 runs]	90% [middle of 5 runs]	62.1% [middle of 5 runs]	–	–
CN(C)C/C=C/C(=O)Nc1cc2c(Nc3ccc(F)c(Cl)c3)ncnc2cc1O[C@H]1CCOC1	–	–	104% [middle of 5 runs]	105% [middle of 5 runs]	> 0.1 µM	102% [middle of 5 runs]	–	–	viability, T/C (compound 0.000316 µM): 105% and 110% and 102% (2×); viability, T/C (compound 0.001 µM): 114% (2×) and 107% and 102% (2×); viability, T/C (compound 0.00316 µM): 104% [middle of 5 runs]
CNCc1ccccc1-c1csc(C(C)Nc2nc(C)nc3cc(OC)c(OC)cc23)c1 (stereo not drawn)	–	–	–	–	–	99.2% [middle of 17 runs]	–	0.22% [middle of 15 runs]	IC50 [1]: 1.54 µM [middle of 5 runs]; IC50 [2]: 1.73 µM [middle of 6 runs]
COC(=O)c1ccc2c(C(=Nc3ccc(N(C)C(=O)CN4CCN(C)CC4)cc3)c3ccccc3)c(O)[nH]c2c1	40.7% [middle of 5 runs]	48.6% [middle of 5 runs]	–	89.8% [middle of 5 runs]	1.09 µM [middle of 5 runs]	77.7% [middle of 5 runs]	65.8% [middle of 5 runs]	15.8% [middle of 5 runs]	–
COc1cc(Nc2ncc3c(n2)-c2ccc(Cl)cc2C(c2c(F)cccc2OC)=NC3)ccc1C(=O)O	33.8% [middle of 5 runs]	42.8% [middle of 5 runs]	–	–	–	–	51% [middle of 5 runs]	20.9% [middle of 5 runs]	–
COc1cc2nc(C)nc(NC(C)c3cc(N)cc(C(F)(F)F)c3)c2cc1OC1CCOC1 (stereo not drawn)	–	–	–	–	–	–	–	–	IC50 [3]: > 10 µM and 9.67 µM
COc1cc2nccc(Oc3ccc(NC(=O)C4(C(=O)Nc5ccc(F)cc5)CC4)cc3)c2cc1OC	78.9% [middle of 5 runs]	99.2% [middle of 5 runs]	–	96.9% [middle of 5 runs]	–	–	–	–	–
Cn1nccc1Nc1nccc(-c2cc3c(s2)C(C)(C)N(CCN2CCOCC2)C3=O)n1	32.8% [middle of 5 runs]	62.4% [middle of 5 runs]	–	98.2% [middle of 5 runs]	1.65 µM [middle of 5 runs]	103% [middle of 5 runs]	99.5% [middle of 5 runs]	30.4% [middle of 5 runs]	–
Cn1ncnc1[C@H]1c2n[nH]c(=O)c3cc(F)cc(c23)N[C@@H]1c1ccc(F)cc1	–	–	99.4% [middle of 5 runs]	98% [middle of 5 runs]	> 0.1 µM	85.3% [middle of 5 runs]	–	–	viability, T/C (compound 0.000316 µM): 105% [middle of 5 runs]; viability, T/C (compound 0.001 µM): 102% (2×) and 95.9% and 103% (2×); viability, T/C (compound 0.00316 µM): 103% [middle of 5 runs]
O=C(c1cc(Cc2n[nH]c(=O)c3ccccc23)ccc1F)N1CCN(C(=O)C2CC2)CC1	–	–	–	105% [middle of 5 runs]	4.88 µM and > 10 µM and 4.58 µM	102% [middle of 5 runs]	93.2% [middle of 5 runs]	50.4% [middle of 5 runs]	–
